Assay results published in patent US7217409B2, “Alkanoic acid derivatives” (SmithKline Beecham Corporation, priority 2000, dated 2007).

Columns and labels:
[1] = Mean particle size of salmeterol xinafoate/HFA 134a suspension by image analysis (Galai CIS-100 particle size analyser); format: physicochemical; details: for spread of the range of particles size: salmeterol xinafoate in HFA 134a with 10% w/w surfactant compound, versus control without surfactant; for Mean Length: salmeterol xinafoate in HFA 134a, 25 μg per actuation, 10% w/w (relative to drug) of surfactant compound, crimped glass bottles, equivalent diameter, average of 4 determinations
Description: Salmeterol xinafoate formulations in HFA 134a, of strength 25 μg per actuation, and 10% w/w (relative to drug) of the relevant surfactant compound of formula (I) were prepared in crimped glass bottles using salmeterol xinafoate (8.7 mg), HFA 134a (18 g) and the relevant compound (0.87 mg). The control was prepared without the addition of a surfactant. […] In this measurement, particle size is represented as the equivalent diameter of a circle of equal area to the object. The mean is the average of 4 determinations. The particle size measurement was obtained by transferring the suspensions to a pressurised cell, and video-imaging the sample under shear via a microscope objective. The equivalent diameter is defined as the diameter of a circle of equal area to the object.
The mean equivalent diameter can be weighted by number, length or volume. e.g. For three particles with equivalent diameters of x, y and z:
This is seen by the marked reduction in average particle size (“mean length”) when a compound of formula (I) is incorporated into the formulation. Futhermore the spread of the range of particles size was reduced in some cases (especially Examples 5 and 7).

[2] = Emitted dose and fine particle mass by Anderson Cascade Impactor stack; format: physicochemical; details: salmeterol xinafoate in HFA 134a, 25 μg per actuation, 10% w/w surfactant compound, aluminum canisters; beginning of use; mean of two determinations
Description: Data were obtained at the beginning of use of the device. Salmeterol xinafoate formulations in HFA 134a, of strength 25 μg per actuation, and 10% w/w (relative to drug) of the relevant surfactant compound of formula (I) were prepared in standard aluminum canisters. Control 1 was prepared at the same time as samples containing examples 2, 5, 6 and 7 whereas control 2 was prepared separately. The analysis of aerosol formulations using such stacks is well known to person skilled in the art. The results are presented as the mean of two determinations.
These samples also show an increase in the absolute value of the FPM fraction in most cases.

SMILES | spread of the range of particles size [1] | Mean Length [1] [μm] | % FPM [2] [%] | FPM (fine particle mass, sum of stages 3 to 5) [2] [µg] | Total Dose Emitted [2] [µg] | Total Emitted Ex-Device [2] [µg]
COCCOCCOCCOCCOCCOCCOCCOCCOCCOCC(=O)O [Example 7, 2,5,8,11,14,17,20,23,26,29-Decaoxahentriacontan-31-oic acid] | reduced | 28.6 | 38.7 | 8.5 | 21.9 | 18.4
COCCOCCOCCOCCOCCOCCOCC(=O)O [Example 2, 2,5,8,11,14,17,20-Heptaoxadocosan-22-oic acid] |  | 27.1 | 38.8 | 8.7 | 22.4 | 18.8
O=C(O)COCCOCCOCC(F)(F)F [Example 6, {[2-({2-[(2,2,2-Trifluoroethyl)oxy]ethyl}oxy)ethyl]oxy}acetic acid] |  | 23.7 | 33.2 | 7.1 | 21.4 | 17.9
O=C(O)COCCOCCOCCOCCOCCOCCOCC(F)(F)F [Example 5, 23,23,23-Trifluoro-3,6,9,12,15,18,21-heptaoxatricosan-1-oic acid] | reduced | 23.8 | 37.2 | 8.6 | 23.0 | 19.4
